# Counter-ions that a name gives are not always drawn.
# Experiments:
# [1] = biological target: T1, Human vitronectin receptor (αvβ3) (Homo sapiens, UniProt P05106+P06756); experiment: Vitronectin adhesion assay (solid phase receptor assay, competition with biotinylated vitronectin); type: binding; conditions: read-out: AvB3 IC50
# T1 construct: Human vitronectin receptor (αvβ3) was purified from human placenta; from tissue; host or cells: human placenta
# How it was run: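 Purified human αvβ3 coated overnight at 4 °C in TBS with 1.0 mM Ca++, Mg++, Mn++, pH 7.4; compounds (top final 1.0×10^−4 M) competed with 1 nM biotinylated vitronectin for 2 h at room temperature. Bound ligand detected by HRP anti-biotin/OPD at A450; values normalized to no-competitor controls, four-parameter curve fit.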
# [2] = biological target: T2, Human fibrinogen receptor (αIIbβ3) (Homo sapiens, UniProt P05106+P08514); experiment: Purified IIb/IIIa receptor assay (solid phase receptor assay, competition with biotinylated vitronectin); type: binding; conditions: read-out: IIb/IIIa IC50
# T2 construct: Human fibrinogen receptor (αIIbβ3) was purified from outdated platelets; from tissue; host or cells: outdated human platelets
# How it was run: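 Competition format: 1 nM biotinylated vitronectin plus test compound (highest 1.0×10^−4 M), 2 h at room temperature on wells coated with platelet-derived αIIbβ3. Buffer was TBS containing 1.0 mM Ca, Mg, Mn, pH 7.4. HRP anti-biotin readout at 450 nm; normalized to maximum binding, four-parameter curve fit.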
IC50 [1] [nM],IC50 [2] [nM],Compound
209,25400,"O=C(O)CC(NC(=O)CNC(=O)c1cccc(NC(=O)NCc2ccccc2)c1)c1cc(Cl)cc(Cl)c1 (stereo not drawn) [Example 269, 3,5-dichloro-β-[[2-[[[3-[[[(phenylmethyl)amino]carbonyl]amino]phenyl]carbonyl]amino]acetyl]amino]benzenepropanoic acid, monohydrate]"
303,72000,"N=C(N)Nc1cccc(C(=O)NC2(C(=O)NC(CC(=O)O)c3cccnc3)CC2)c1 (stereo not drawn) [Example 19, β-[[1-[[[3-[(aminoiminomethyl)amino]phenyl]carbonyl]amino]cycloprop-1-yl]carbonyl]amino]pyridine-3-propanoic acid, bis(trifluoroacetate)salt]"
252,5560,"C/N=C(/Nc1cccc(C(=O)NCC(=O)NC(CC(=O)O)c2ccc(F)cc2)c1)NC(C)C (racemic) [Example 298, (±)4-fluoro-β-[[2-[[[3-[[[(1-methylethyl)amino](methylimino)methyl]amino]phenyl]carbonyl]amino]acetyl]amino]benzenepropanoic acid, trifluoroacetate salt]"
1,326,"N=C(N)Nc1cc(C(=O)NCC(=O)NC(CC(=O)O)c2cc(Cl)cc(Br)c2)cc(C(F)(F)F)c1 (racemic) [Example 216, (±)β-[[2-[[[3-[(aminoiminomethyl)amino]-5-(trifluoromethyl)phenyl]carbonyl]amino]acetyl]amino]-3-bromo-5-chlorobenzenepropanoic acid, trifluoroacetate salt]"
0.45,150,"O=C(O)CC(NC(=O)CNC(=O)c1cccc(NC2=NCCCS2)c1)c1cccnc1 (stereo not drawn) [Example 278, β-[[2-[[[3-[(5,6-dihydro-4H-thiazin-2-yl)amino]phenyl]carbonyl]amino]acetyl]amino]pyridine-3-propanoic acid, bis(trifluoroacetate)salt]"
114,37800,"CNC(=NC#N)Nc1cccc(C(=O)NCC(=O)NC(CC(=O)O)c2cc(Cl)cc(Cl)c2)c1 (racemic) [Example 198, (±)3,5-dichloro-β-[[2-[[[3-[(cyanoimino)(methylamino)methyl]amino]phenyl]carbonyl]amino]acetyl]amino]benzenepropanoic acid]"
0.9,148,"N=C(N)Nc1cccc(C(=O)NCC(=O)NC(CC(=O)O)c2ccc(Br)c(Br)c2)c1 (racemic) [Example 207, (±)β-[[2-[[[3-[(aminoiminomethyl)amino]phenyl]carbonyl]amino]acetyl]amino]-3,4-dibromobenzenepropanoic acid, trifluoroacetate salt]"
1.15,277,"N=C(N)Nc1cccc(C(=O)NCC(=O)NC(CC(=O)O)c2cc(F)cc(C(F)(F)F)c2)c1 (racemic) [Example 208, (±)β-[[2-[[[3-[(aminoiminomethyl)amino]phenyl]carbonyl]amino]acetyl]amino]-3-fluoro-5-(trifluoromethyl)benzenepropanoic acid, trifluoroacetate salt]"
2.29,269,"N=C(N)Nc1cc(C(=O)NCC(=O)NC(CC(=O)O)c2cc(Cl)cc(Cl)c2)ccc1Cl (stereo not drawn) [Example 168, β-[[2-[[[3-[(aminoiminomethyl)amino]-4-chlorophenyl]carbonyl]amino]acetyl]amino]-3,5-dichlorobenzenepropanoic acid, trifluoroacetate salt]"
1.25,111,"N=C(N)Nc1cccc(C(=O)NCC(=O)NC(CC(=O)O)c2cc(Br)c(O)c(Br)c2)c1 (stereo not drawn) [Example 276, β-[[2-[[[3-[(aminoiminomethyl)amino]phenyl)carbonyl]amino]acetyl]amino]-3,5-dibromo-4-hydroxybenzenepropanoic acid, trifluoroacetate salt]"
28.4,6050,"N=C(N)Nc1cccc(C(=O)NCC(=O)NC(CC(=O)O)c2ccccc2OCC(=O)O)c1 (stereo not drawn) [Example 255, β-[[2-[[[3-[(aminoiminomethyl)amino]phenyl]carbonyl]amino]acetyl]amino]-2(carboxymethoxy)benzenepropanoic acid, trifluoroacetate salt]"
1.47,166,"N=C(N)Nc1cccc(C(=O)NCC(=O)NC(CC(=O)O)c2cccc(Br)c2)c1 (racemic) [Example 185, (±)β-[[2-[[[3-[(aminoiminomethyl)amino]phenyl]carbonyl]amino]acetyl]amino]-3-bromobenzenepropanoic acid, trifluoroacetate salt]"
2.12,205,"N=C(N)Nc1cccc(C(=O)NCC(=O)NC(CC(=O)O)c2ccc(Cl)c(Cl)c2)c1 (racemic) [Example 175, (±)β-[[2-[[[3-[(aminoiminomethyl)amino]phenyl]carbonyl]amino]acetyl]amino]-3,4-dichlorobenzenepropanoic acid, trifluoroacetate salt]"
2840,> 100000,"CCOC(=O)CC(NC(=O)CNC(=O)c1cccc(NC(=O)NCc2ccccc2)c1)c1ccc2c(c1)OCO2 (stereo not drawn) [Example 121, ethyl β-[[2-[[[3-[[[(phenylmethyl)amino]carbonyl]amino]phenyl]carbonyl]amino]acetyl]amino]-1,3-benzodioxole-5-propanoate]"
0.76,124,"N=C(N)Nc1cccc(C(=O)NCC(=O)NC(CC(=O)O)c2ccc(Cl)s2)c1 (stereo not drawn) [251(C), β-[[2-[[[3-[(aminoiminomethyl)amino]phenyl]carbonyl]amino]acetyl]amino]-5-chlorothiophene-2-propanoic acid, trifluoroacetate salt]"
276,≥ 100000,"CCOC(=O)CC(NC(=O)CNC(=O)c1cccc(NC(N)=S)c1)c1cccnc1 (stereo not drawn) [Example 113, ethyl β-[[2-[[[3-[(aminothioxomethyl)amino]phenyl]carbonyl]amino]acetyl]amino]pyridine-3-propanoate, trifluoroacetate salt]"
2.62,343,"N=C(N)Nc1cccc(C(=O)NCC(=O)NC(CC(=O)O)c2cc(Br)cc(Br)c2)c1 (racemic) [Example 210, (±)β-[[2-[[[3-[(aminoiminomethyl)amino]phenyl]carbonyl]amino]acetyl]amino]-3,5-dibromobenzenepropanoic acid, trifluoroacetate salt]"
0.5,17.4,"C#C[C@H](CC(=O)O)NC(=O)CNC(=O)c1ccc(Cl)c(NC(=N)N)c1 [Example 173, 3S-[[2-[[[3-[(aminoiminomethyl)amino]-4-chlorophenyl]carbonyl]amino]acetyl]amino]-4-pentynoic acid, trifluoroacetate salt]"
2.72,927,"O=C(O)CC(NC(=O)CNC(=O)c1cccc(NC2=NCCN2)c1)c1cc(C(F)(F)F)cc(C(F)(F)F)c1 (racemic) [Example 179, (±)β-[[2-[[[3-[(4,5-dihydro-1H-imidazol-2-yl)amino]phenyl]carbonyl]amino]acetyl]-amino]-3,5-bis(trifluoromethyl)benzenepropanoic acid, trifluoroacetate salt]"
2.12,509,"N=C(N)Nc1cccc(C(=O)NCC(=O)NC(CC(=O)O)c2ccc(F)cc2)c1 (stereo not drawn) [Example 363, β-[[2-[[[3-[(aminoiminomethyl)amino]phenyl]carbonyl]amino]acetyl]amino]-4-fluorobenzenepropanoic acid, trifluoroacetate salt]"
0.44,91.3,"N=C(N)Nc1cccc(C(=O)NCC(=O)NC(CC(=O)O)c2ccc(Br)s2)c1 (stereo not drawn) [Example 366, β-[[2-[[[3-[(aminoiminomethyl)amino]phenyl]carbonyl]amino]acetyl]amino]-5-bromothiophene-2-propanoic acid, trifluoroacetate salt, monohydrate]"
58.1,10800,"CNC(=NC(N)=O)Nc1cccc(C(=O)NCC(=O)NC(CC(=O)O)c2cc(Cl)cc(Cl)c2)c1 (racemic) [Example 201, (±)β-[[2-[[[3-[[[(aminocarbonyl)imino)methylamino)methyl]amino]phenyl]carbonyl]amino]acetyl]amino]-3,5-dichlorobenzenepropanoic acid]"
0.67,7430,"O=C(O)CC(NC(=O)CNC(=O)c1cccc(NC(=O)NCc2ccccn2)c1)c1cccnc1 (stereo not drawn) [Example 268, β[[2-[[[3-[[[(2-pyridinylmethyl)amino]carbonyl]amino]phenyl]carbonyl]amino]acetyl]amino]pyridine-3-propanoic acid, (bis)trifluoroacetate salt]"
173,1990,"C/N=C(\NC)Nc1cccc(C(=O)NCC(=O)NC(CC(=O)O)c2cc(Cl)cc(Cl)c2)c1 (racemic) [Example 294, (±)3,5-dichloro-β-[[2-[[[3-[[(methylamino)(methylimino)methyl]amino]phenyl]carbonyl]amino]acetyl]amino]benzenepropanoic acid, trifluoroacetate salt]"
5.51,9160,"O=C(O)CC(NC(=O)CNC(=O)c1cccc(NC(=O)NCc2ccccc2)c1)c1cccc(Cl)c1 (stereo not drawn) [Example 270, 3-chloro-β-[[2-[[[3-[[[(phenylmethyl)amino]carbonyl]amino]phenyl]carbonyl]amino]acetyl]amino]benzenepropanoic acid, monohydrate]"

Compound,IC50 [1] [nM],IC50 [2] [nM]
ethyl 3S-[[2-[[[3-[[(cyanoimino)(methylamino)methyl]amino]phenyl]carbonyl]amino]acetyl]amino]-4-pentynoate [Example 140],4590,> 100000

# From patent US6831199B1, “Pyrimidine compounds and derivatives thereof” (G. D. Searle & Co., priority 1995, dated 2004)
